Each compound was assayed on pdr5 ypt1^ts cells (assay: microbe, parasite or virus in culture). Conditions: Saccharomyces cerevisiae; Table 2; lowest concentration tested giving growth above the 0 μM background; 37° C.; read-out: ypt1-ts MRC (minimal rescue concentration).
Assay type: cell-based, yeast
How it was run: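 Whole-cell yeast growth-rescue screen: pdr5 ypt1^ts cells (efflux pump inactivated), growth-arrested at 37° C., cultured with compounds at 37° C. Restoration of growth read by optical density.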

Compound | minimal effective concentration [µM]
COc1ccc(-c2cc(=O)c3ccccc3o2)cc1 [4′-METHOXYFLAVONE] | 1.56
CC(C)C1=CC2=CCC3[C@](C)(CCC[C@]3(C)C(=O)O)C2CC1 (stereo partly shown) [ABIETIC ACID] | 3.13
CC1(C)C2CC(=O)O[C@]3(C)C4=CC(=O)O[C@@H](c5ccoc5)[C@]4(C)CCC3[C@@]2(C)C=C[C@H]1O (stereo partly shown) [DEOXYANDIROBIN- LACTONE] | 3.13
COc1cccc2c1CCC1CC(=O)CC[C@]21C (stereo partly shown) [14-METHOXY-4,4- BISNOR-8,11,13- PODOCARPATRIEN-3- ONE] | 12.5
COc1ccc(CC(=O)c2ccc(O)cc2O)cc1 [ONONETIN] | 6.25
O=C(/C=C(\O)c1ccccc1)c1ccccc1O [2',beta- DIHYDROXYCHALCONE] | 12.5
C=C1CCC(OC(C)=O)/C(C)=C/C[C@@H]2[C@@H]1CC2(C)C (stereo partly shown) [CARY[…]] | 12.5

Same assay, conditions: Table 2; 0.39 μM compound; 37° C.; background (0 μM) 0.058

Compound | optical density, ypt1-ts, 0.39
FUSIDIC ACID [reference compound] | 0.095
COc1ccc(-c2cc(=O)c3ccccc3o2)cc1 [4′-METHOXYFLAVONE] | 0.111
CC(C)C1=CC2=CCC3[C@](C)(CCC[C@]3(C)C(=O)O)C2CC1 (stereo partly shown) [ABIETIC ACID] | 0.107
CC1(C)C2CC(=O)O[C@]3(C)C4=CC(=O)O[C@@H](c5ccoc5)[C@]4(C)CCC3[C@@]2(C)C=C[C@H]1O (stereo partly shown) [DEOXYANDIROBIN- LACTONE] | 0.107
COc1cccc2c1CCC1CC(=O)CC[C@]21C (stereo partly shown) [14-METHOXY-4,4- BISNOR-8,11,13- PODOCARPATRIEN-3- ONE] | 0.088
COc1ccc(CC(=O)c2ccc(O)cc2O)cc1 [ONONETIN] | 0.097
O=C(/C=C(\O)c1ccccc1)c1ccccc1O [2',beta- DIHYDROXYCHALCONE] | 0.083
C=C1CCC(OC(C)=O)/C(C)=C/C[C@@H]2[C@@H]1CC2(C)C (stereo partly shown) [CARY[…]] | 0.087

Same assay, conditions: Table 2; 0.78 μM compound; 37° C.; background (0 μM) 0.058

Compound | optical density, ypt1-ts, 0.78
FUSIDIC ACID [reference compound] | 0.081
COc1ccc(-c2cc(=O)c3ccccc3o2)cc1 [4′-METHOXYFLAVONE] | 0.077
CC(C)C1=CC2=CCC3[C@](C)(CCC[C@]3(C)C(=O)O)C2CC1 (stereo partly shown) [ABIETIC ACID] | 0.079
CC1(C)C2CC(=O)O[C@]3(C)C4=CC(=O)O[C@@H](c5ccoc5)[C@]4(C)CCC3[C@@]2(C)C=C[C@H]1O (stereo partly shown) [DEOXYANDIROBIN- LACTONE] | 0.082
COc1cccc2c1CCC1CC(=O)CC[C@]21C (stereo partly shown) [14-METHOXY-4,4- BISNOR-8,11,13- PODOCARPATRIEN-3- ONE] | 0.074
COc1ccc(CC(=O)c2ccc(O)cc2O)cc1 [ONONETIN] | 0.08
O=C(/C=C(\O)c1ccccc1)c1ccccc1O [2',beta- DIHYDROXYCHALCONE] | 0.072
C=C1CCC(OC(C)=O)/C(C)=C/C[C@@H]2[C@@H]1CC2(C)C (stereo partly shown) [CARY[…]] | 0.076

Same assay, conditions: Table 2; 1.56 μM compound; 37° C.; background (0 μM) 0.058

Compound | optical density, ypt1-ts, 1.56
FUSIDIC ACID [reference compound] | 0.084
COc1ccc(-c2cc(=O)c3ccccc3o2)cc1 [4′-METHOXYFLAVONE] | 0.136
CC(C)C1=CC2=CCC3[C@](C)(CCC[C@]3(C)C(=O)O)C2CC1 (stereo partly shown) [ABIETIC ACID] | 0.1
CC1(C)C2CC(=O)O[C@]3(C)C4=CC(=O)O[C@@H](c5ccoc5)[C@]4(C)CCC3[C@@]2(C)C=C[C@H]1O (stereo partly shown) [DEOXYANDIROBIN- LACTONE] | 0.089
COc1cccc2c1CCC1CC(=O)CC[C@]21C (stereo partly shown) [14-METHOXY-4,4- BISNOR-8,11,13- PODOCARPATRIEN-3- ONE] | 0.075
COc1ccc(CC(=O)c2ccc(O)cc2O)cc1 [ONONETIN] | 0.096
O=C(/C=C(\O)c1ccccc1)c1ccccc1O [2',beta- DIHYDROXYCHALCONE] | 0.076
C=C1CCC(OC(C)=O)/C(C)=C/C[C@@H]2[C@@H]1CC2(C)C (stereo partly shown) [CARY[…]] | 0.084

Same assay, conditions: Table 2; 3.13 μM compound; 37° C.; background (0 μM) 0.058

Compound | optical density, ypt1-ts, 3.13
FUSIDIC ACID [reference compound] | 0.107
COc1ccc(-c2cc(=O)c3ccccc3o2)cc1 [4′-METHOXYFLAVONE] | 0.474
CC(C)C1=CC2=CCC3[C@](C)(CCC[C@]3(C)C(=O)O)C2CC1 (stereo partly shown) [ABIETIC ACID] | 0.165
CC1(C)C2CC(=O)O[C@]3(C)C4=CC(=O)O[C@@H](c5ccoc5)[C@]4(C)CCC3[C@@]2(C)C=C[C@H]1O (stereo partly shown) [DEOXYANDIROBIN- LACTONE] | 0.137
COc1cccc2c1CCC1CC(=O)CC[C@]21C (stereo partly shown) [14-METHOXY-4,4- BISNOR-8,11,13- PODOCARPATRIEN-3- ONE] | 0.088
COc1ccc(CC(=O)c2ccc(O)cc2O)cc1 [ONONETIN] | 0.111
O=C(/C=C(\O)c1ccccc1)c1ccccc1O [2',beta- DIHYDROXYCHALCONE] | 0.096
C=C1CCC(OC(C)=O)/C(C)=C/C[C@@H]2[C@@H]1CC2(C)C (stereo partly shown) [CARY[…]] | 0.1

Same assay, conditions: Table 2; 6.25 μM compound; 37° C.; background (0 μM) 0.058

Compound | optical density, ypt1-ts, 6.25
FUSIDIC ACID [reference compound] | 0.137
COc1ccc(-c2cc(=O)c3ccccc3o2)cc1 [4′-METHOXYFLAVONE] | 0.567
CC(C)C1=CC2=CCC3[C@](C)(CCC[C@]3(C)C(=O)O)C2CC1 (stereo partly shown) [ABIETIC ACID] | 0.173
CC1(C)C2CC(=O)O[C@]3(C)C4=CC(=O)O[C@@H](c5ccoc5)[C@]4(C)CCC3[C@@]2(C)C=C[C@H]1O (stereo partly shown) [DEOXYANDIROBIN- LACTONE] | 0.249
COc1cccc2c1CCC1CC(=O)CC[C@]21C (stereo partly shown) [14-METHOXY-4,4- BISNOR-8,11,13- PODOCARPATRIEN-3- ONE] | 0.096
COc1ccc(CC(=O)c2ccc(O)cc2O)cc1 [ONONETIN] | 0.14
O=C(/C=C(\O)c1ccccc1)c1ccccc1O [2',beta- DIHYDROXYCHALCONE] | 0.124
C=C1CCC(OC(C)=O)/C(C)=C/C[C@@H]2[C@@H]1CC2(C)C (stereo partly shown) [CARY[…]] | 0.109

Same assay, conditions: Table 2; 12.5 μM compound; 37° C.; background (0 μM) 0.058

Compound | optical density, ypt1-ts, 12.5
FUSIDIC ACID [reference compound] | 0.296
COc1ccc(-c2cc(=O)c3ccccc3o2)cc1 [4′-METHOXYFLAVONE] | 0.556
CC(C)C1=CC2=CCC3[C@](C)(CCC[C@]3(C)C(=O)O)C2CC1 (stereo partly shown) [ABIETIC ACID] | 0.528
CC1(C)C2CC(=O)O[C@]3(C)C4=CC(=O)O[C@@H](c5ccoc5)[C@]4(C)CCC3[C@@]2(C)C=C[C@H]1O (stereo partly shown) [DEOXYANDIROBIN- LACTONE] | 0.524
COc1cccc2c1CCC1CC(=O)CC[C@]21C (stereo partly shown) [14-METHOXY-4,4- BISNOR-8,11,13- PODOCARPATRIEN-3- ONE] | 0.191
COc1ccc(CC(=O)c2ccc(O)cc2O)cc1 [ONONETIN] | 0.3
O=C(/C=C(\O)c1ccccc1)c1ccccc1O [2',beta- DIHYDROXYCHALCONE] | 0.31
C=C1CCC(OC(C)=O)/C(C)=C/C[C@@H]2[C@@H]1CC2(C)C (stereo partly shown) [CARY[…]] | 0.239

Same assay, conditions: Table 2; 25 μM compound; 37° C.; background (0 μM) 0.058

Compound | optical density, ypt1-ts, 25
FUSIDIC ACID [reference compound] | 0.52
COc1ccc(-c2cc(=O)c3ccccc3o2)cc1 [4′-METHOXYFLAVONE] | 0.557
CC(C)C1=CC2=CCC3[C@](C)(CCC[C@]3(C)C(=O)O)C2CC1 (stereo partly shown) [ABIETIC ACID] | 0.61
CC1(C)C2CC(=O)O[C@]3(C)C4=CC(=O)O[C@@H](c5ccoc5)[C@]4(C)CCC3[C@@]2(C)C=C[C@H]1O (stereo partly shown) [DEOXYANDIROBIN- LACTONE] | 0.613
COc1cccc2c1CCC1CC(=O)CC[C@]21C (stereo partly shown) [14-METHOXY-4,4- BISNOR-8,11,13- PODOCARPATRIEN-3- ONE] | 0.48
COc1ccc(CC(=O)c2ccc(O)cc2O)cc1 [ONONETIN] | 0.618
O=C(/C=C(\O)c1ccccc1)c1ccccc1O [2',beta- DIHYDROXYCHALCONE] | 0.551
C=C1CCC(OC(C)=O)/C(C)=C/C[C@@H]2[C@@H]1CC2(C)C (stereo partly shown) [CARY[…]] | 0.258

Same assay, conditions: Table 2; lowest concentration tested giving growth above the 0 μM background; 37° C.; read-out: ypt1-ts MRC (minimal rescue concentration)

Compound | minimal effective concentration [µM]
FUSIDIC ACID [reference compound] | 6.25
